Test results as given in ChEMBL document CHEMBL3351245, “Chlorinated polyketide obtained from a Daldinia sp. treated with the epigenetic modifier suberoylanilide hydroxamic acid” (J Nat Prod, 2014).
Calls of active or inactive are those of the source. No cut-off for these calls is given here.

How the values were obtained:
Staphylococcus aureus = test: Antimicrobial activity against methicillin-resistant Staphylococcus aureus; assay type: functional, organism-based
MIA PaCa-2 = test: Cytotoxicity against human MIAPaCa2 cells by MTT assay; assay type: functional, cell-based
Klebsiella pneumoniae = test: Antimicrobial activity against Klebsiella pneumoniae; assay type: functional, organism-based
[1] = Antioxidant activity assessed as DPPH radical scavenging activity incubated for 30 mins; assay type: physicochemical

| Structure (SMILES) | Activity (Staphylococcus aureus) | Activity (MIA PaCa-2) | Activity (Klebsiella pneumoniae) | IC50 [1] [µM] |
| --- | --- | --- | --- | --- |
| O=C1c2c3c(cc(O)c2[C@H](O)[C@@H]2O[C@H]12)-c1ccc(O)c2c(O)ccc-3c12 | inactive | inactive | inactive | 3.1 |
| O=C1O[C@H]([C@@H](O)CO)C(O)=C1O [ASCORBIC ACID] |  |  |  | 3.2 |
| O=C1c2c3c(cc(O)c2[C@H](O)[C@H](O)[C@@H]1Cl)-c1ccc(O)c2c(O)ccc-3c12 | inactive | inactive | inactive | 3.6 |
